Tests used:
[1] = target: T1, rat mGlu1a receptor (Rattus norvegicus, UniProt P23385); experiment: Intracellular Ca2+ response in rat mGlu1a receptor expressing CHO-dhfr− cells (FLIPR); format: cell-based; conditions: CHO-dhfr− cells expressing rat mGlu1a; glutamate 30 μM; read-out: IC50, inhibition of the glutamate-induced increase in [Ca2+]i
T1 construct: host or cells: CHO-dhfr- cells

[2] = target: T1, rat mGlu1a receptor; experiment: [3H]Compound A binding to rat mGlu1a receptor CHO-dhfr− membranes (saturation, kinetics, inhibition)
[3] = target: T1, rat mGlu1a receptor; experiment: [3H]quisqualate binding to rat mGlu1a receptor CHO-dhfr− membranes (saturation, inhibition); conditions: rat mGlu1a receptor CHO-dhfr− membranes
[4] = target: T2, mGlu1 receptor (Rattus norvegicus, UniProt P23385); experiment: [3H]Compound A binding to rat brain membranes (cortex, hippocampus, striatum, cerebellum); conditions: 10 μM; 2.5 nM [3H]Compound A (FIG. 9)
Experimental: Tissue preparation. Male Wistar rats (˜200 g) were sacrificed by decapitation. The brains were rapidly removed and cortex, hippocampus, striatum and cerebellum were immediately dissected. The fresh tissue was homogenized with an Ultra Turrax in 20 volumes of 50 mM Tris-HCl, pH 7.4 and tissue was centrifuged at 23,500 g for 10 min. After homogenisation using a DUAL homogeniser, membranes were washed twice by centrifugation at 23,500 g for 10 min. The final pellet was suspended in 10 volumes of 50 mM Tris-HCl, pH 7.4 and frozen at −80° C.
In vitro binding assay. After thawing, membranes from rat cortex, cerebellum, striatum and hippocampus were rehomogenized using a DUAL and suspended in ice-cold binding buffer containing 50 mM Tris-HCl, 1.2 mM MgCl2, 2 mM CaCl2, pH 7.4. The binding assay was carried out in a total volume of 0.5 ml containing 2.5 nM [^3H]Compound A and a membrane aliquot corresponding to 40 μg for cerebellar membranes, 60 μg for hippocampal membranes, 80 μg for striatal membranes or 150 μg for cortical membranes. […] After incubation for 30 min at 4° C., the labelled membranes were washed and harvested by rapid vacuum filtration over Whatman GF/C glass-fibre filters using a 40-well filtration manifold and radioactivity collected on the filters was counted as above.
Data analysis was performed using the GraphPad Prism program (GraphPad Prism Software, Inc., San Diego, Calif.). Saturation binding experiments were analysed using a non-linear regression analysis. Inhibition curves were fitted using non-linear regression analysis fitting the one-site competition equation: Y=Bottom+((Top−Bottom)/1+10^X-LogIC50). Ki values were calculated using the Cheng-Prusoff equation: Ki=IC50/[1+([C]/KD)] where C is the concentration of radioligand and KD is the dissociation constant of the radioligand (Cheng and Prusoff, Biochem. Pharmacol. 22, 3099-3108, 1973). The observed on (kob) and off (koff) rate were calculated from association-dissociation curves using the one-phase-exponential association and decay equations in the Prism program, respectively. kon was calculated by subtracting koff from kob and dividing by the radioligand concentration. The two-tailed Student's t-test was used for statistical evaluation of the binding data: * p<0.05, ** p<0.01 and *** p<0.001. The Dunnett's t-test following a 2-way analysis of variance (with as factors compound concentration and experiment) were used to analyse the data from the IP experiments.

[5] = target: T2, mGlu1 receptor; experiment: [3H]Compound A binding and autoradiography on rat brain sections; conditions: 10 μM (FIG. 10, panel C)
Experimental: Tissue preparation. Male Wistar rats (200 g) were sacrificed by decapitation. Brains were immediately removed from the skull and were rapidly frozen in dry-ice-cooled 2-methylbutane (−40° C.). Brains were then stored at −70° C. until sectioning. Twenty-micrometer-thick sagittal sections were cut using a Leica C3050 cryostat microtome (Leica Microsystems, Wetzlar, Germany) and thaw-mounted on SuperFrost Plus microscope slides (Menzle-glaser, Germany). The sections were then kept at −70° C. until use.
Receptor autoradiography. Sections were thawed and dried under a stream of cold air, preincubated (3×5 min) in 50 mM Tris-HCl, 1.2 mM MgCl2, 2 mM CaCl2, 0.1% BSA pH 7.4 at room temperature. […] After the incubation, the excess of radioligand was washed off (3×5 min) in ice-cold buffer containing 50 mM Tris-HCl, 1.2 mM MgCl2 and 2 mM CaCl2, followed by a rapid dip in cold distilled water. The sections were dried under a stream of cold air and then exposed to [^3H]Hyperfilm (Amersham, UK) for 6 weeks at room temperature. The films were developed manually in Kodak D19 and fixed with Kodak Readymatic. Some sections were exposed to a Fuji Imaging Plate for 2 days at room temperature and scanned using a Fujix Bass 2000 phosphoimager.

[6] = test system: mGlu1 receptor; conditions: literature; cited from earlier work

T1 sequence (P23385 19-1199): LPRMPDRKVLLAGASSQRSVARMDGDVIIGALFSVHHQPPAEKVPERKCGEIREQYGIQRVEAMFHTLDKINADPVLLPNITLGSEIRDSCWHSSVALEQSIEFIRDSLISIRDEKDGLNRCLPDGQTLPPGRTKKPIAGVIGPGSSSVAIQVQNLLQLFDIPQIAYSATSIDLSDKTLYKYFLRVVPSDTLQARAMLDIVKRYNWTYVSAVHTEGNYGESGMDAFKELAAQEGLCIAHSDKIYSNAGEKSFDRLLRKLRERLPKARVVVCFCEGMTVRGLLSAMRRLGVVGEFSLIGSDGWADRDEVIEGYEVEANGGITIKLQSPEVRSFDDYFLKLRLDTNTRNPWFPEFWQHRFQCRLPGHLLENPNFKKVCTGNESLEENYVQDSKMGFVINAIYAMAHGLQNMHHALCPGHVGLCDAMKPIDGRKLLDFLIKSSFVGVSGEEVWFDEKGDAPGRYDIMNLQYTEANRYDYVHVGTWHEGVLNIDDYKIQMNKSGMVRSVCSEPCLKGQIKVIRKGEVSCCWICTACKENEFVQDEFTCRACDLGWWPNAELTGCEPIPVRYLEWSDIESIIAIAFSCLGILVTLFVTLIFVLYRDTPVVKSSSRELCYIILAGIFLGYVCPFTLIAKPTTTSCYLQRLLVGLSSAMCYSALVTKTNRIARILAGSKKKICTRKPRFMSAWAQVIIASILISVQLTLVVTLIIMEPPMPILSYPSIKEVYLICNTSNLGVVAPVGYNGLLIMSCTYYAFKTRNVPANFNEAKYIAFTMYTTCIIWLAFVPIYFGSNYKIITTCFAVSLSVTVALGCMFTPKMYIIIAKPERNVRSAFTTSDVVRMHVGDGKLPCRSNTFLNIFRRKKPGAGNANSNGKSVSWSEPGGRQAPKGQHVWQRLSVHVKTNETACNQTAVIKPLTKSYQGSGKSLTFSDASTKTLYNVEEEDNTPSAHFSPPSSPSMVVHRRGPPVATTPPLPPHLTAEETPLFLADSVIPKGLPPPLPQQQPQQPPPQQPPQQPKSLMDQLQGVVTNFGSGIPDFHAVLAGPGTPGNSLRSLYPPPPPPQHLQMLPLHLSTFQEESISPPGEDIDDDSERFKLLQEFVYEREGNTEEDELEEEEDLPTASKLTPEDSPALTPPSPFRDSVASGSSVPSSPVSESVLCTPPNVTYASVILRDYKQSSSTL

IC50 [1]: 161 ± 38 nM | Ki ([2]; 2.5 nM [3H]Compound A, 30 min at 4° C., mean ± SD of 3–4 experiments): 11.2 ± 0.93 nM | Hill coefficient ([2]; inhibition of [3H]Compound A-binding, mean ± SD of 3–4 experiments): 0.95 ± 0.02 | inhibition of [3H]Compound A binding (in words) ([2]; rat mGlu1a receptor CHO-dhfr− membranes): nanomolar concentrations | Ki ([3]; inhibition of [3H]quisqualate binding, mean ± SD of 2 experiments): > 1 mM | effect on [3H]quisqualate binding (in words) [3]: did not affect | inhibition of [3H]Compound A binding to rat cerebellar membranes [4]: maximally inhibited | inhibition of [3H]Compound A binding to rat brain sections [5]: completely inhibited
SMILES: C=C1C[C@@H]2COC(=O)[C@]2(Cc2ccc3ccccc3c2)C1 [BAY 36-7620, reference compound]
potency of mGlu1 receptor block [6]: 160 nM

From patent US7517517B2 (Janssen Pharmaceutica N.V., priority 2002, dated 2009)
